# Article PMC8301926 (Biomolecules, 2021)
# “And” between values parts separate entries of the source, which are not always exact repeats. Equal entries are not always repeated. Where two headings read alike, the source gives them in different places.
# Experiments:
# [1] = molecular target: T1, recombinant human monoamine oxidase A (hMAO-A) (Homo sapiens, UniProt P21397); experiment: hMAO-A inhibition, MAO-Glo chemiluminescent assay; format: biochemical; details: for IC50: mean ± SD of triplicate experiments; for SI (selectivity index): ratio of the IC50 value for hMAO-A inhibition to that for hMAO-B inhibition
# T1 sequence (P21397 1-527): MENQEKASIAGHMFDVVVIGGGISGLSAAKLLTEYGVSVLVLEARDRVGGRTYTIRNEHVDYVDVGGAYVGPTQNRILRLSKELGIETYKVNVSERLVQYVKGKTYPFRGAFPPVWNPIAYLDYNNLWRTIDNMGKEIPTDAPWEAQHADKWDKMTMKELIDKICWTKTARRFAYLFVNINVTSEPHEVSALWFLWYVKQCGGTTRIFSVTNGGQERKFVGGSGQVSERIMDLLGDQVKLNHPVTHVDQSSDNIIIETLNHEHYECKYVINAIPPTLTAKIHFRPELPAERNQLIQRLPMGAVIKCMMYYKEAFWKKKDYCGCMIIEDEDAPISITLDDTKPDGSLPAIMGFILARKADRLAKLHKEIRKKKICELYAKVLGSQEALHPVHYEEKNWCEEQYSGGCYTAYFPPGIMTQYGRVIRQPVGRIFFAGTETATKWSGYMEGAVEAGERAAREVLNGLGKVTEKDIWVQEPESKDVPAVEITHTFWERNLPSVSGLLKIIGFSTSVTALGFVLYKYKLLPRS
# [2] = system: recombinant human MAO-A (hMAO-A); set-up: method as in earlier work; details: ref 27 (Dittman et al., 2004); read-out: IC50, recombinant human MAO-A (literature); cited from earlier work
# [3] = molecular target: T2, recombinant human monoamine oxidase B (hMAO-B) (Homo sapiens, UniProt P27338); experiment: hMAO-B enzyme kinetics (Lineweaver-Burk, Dixon, secondary plots); format: biochemical; details: for Inhibition Type, hMAO-B: Lineweaver-Burk and Dixon plots; for Ki: from secondary plots
# T2 sequence (P27338 1-520): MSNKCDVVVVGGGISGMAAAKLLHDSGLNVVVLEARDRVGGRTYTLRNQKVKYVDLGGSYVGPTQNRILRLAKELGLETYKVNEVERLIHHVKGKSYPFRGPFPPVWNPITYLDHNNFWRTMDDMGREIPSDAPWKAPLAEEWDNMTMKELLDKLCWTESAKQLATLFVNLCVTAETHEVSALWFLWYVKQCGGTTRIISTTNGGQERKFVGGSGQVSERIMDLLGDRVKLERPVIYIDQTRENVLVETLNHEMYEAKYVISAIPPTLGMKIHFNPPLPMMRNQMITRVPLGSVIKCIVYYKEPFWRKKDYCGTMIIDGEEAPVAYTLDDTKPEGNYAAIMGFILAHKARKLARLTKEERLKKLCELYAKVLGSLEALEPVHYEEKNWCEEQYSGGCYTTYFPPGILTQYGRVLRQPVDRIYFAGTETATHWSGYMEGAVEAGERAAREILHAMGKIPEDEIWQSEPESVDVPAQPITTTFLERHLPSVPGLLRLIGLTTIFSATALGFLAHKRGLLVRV
# [4] = molecular target: T2, recombinant human monoamine oxidase B (hMAO-B); experiment: hMAO-B inhibition, MAO-Glo chemiluminescent assay; format: biochemical; details: mean ± SD of triplicate experiments
# [5] = molecular target: T1, recombinant human monoamine oxidase A (hMAO-A); experiment: hMAO-A enzyme kinetics (Lineweaver-Burk, Dixon, secondary plots); format: biochemical; details: for Inhibition Type, hMAO-A: Lineweaver-Burk and Dixon plots; for Ki: from secondary plots
# [6] = molecular target: T3, human M4 muscarinic acetylcholine receptor (hM4R) (Homo sapiens, UniProt P08173); experiment: M4 (h) functional GPCR assay, antagonist effect, cAMP HTRF; format: cell-based; details: CHO cells, cAMP; read-out: Reference IC50, M4 reference antagonist
# T3 construct: host or cells: CHO cells
# T3 sequence (P08173 1-479): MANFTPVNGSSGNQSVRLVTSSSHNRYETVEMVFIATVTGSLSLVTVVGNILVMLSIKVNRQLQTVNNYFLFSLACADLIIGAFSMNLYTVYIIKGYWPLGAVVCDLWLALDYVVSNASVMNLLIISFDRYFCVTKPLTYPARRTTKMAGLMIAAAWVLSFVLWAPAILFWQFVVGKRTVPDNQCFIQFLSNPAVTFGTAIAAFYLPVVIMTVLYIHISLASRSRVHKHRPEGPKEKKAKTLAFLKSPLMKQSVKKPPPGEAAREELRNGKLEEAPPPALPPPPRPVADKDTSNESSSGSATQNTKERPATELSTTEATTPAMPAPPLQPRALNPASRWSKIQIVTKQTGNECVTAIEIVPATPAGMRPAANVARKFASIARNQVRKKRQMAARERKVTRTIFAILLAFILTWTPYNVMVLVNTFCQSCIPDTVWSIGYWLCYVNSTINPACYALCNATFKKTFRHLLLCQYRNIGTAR
# Description: The cellular and nuclear receptor functional assays were carried out at Eurofins Cerep (Le Bois I’ Eveque, France) following the in-house protocols (catalog items G029-1262, G029-1474, G030-1658, G030-1659, G031-1243, G031-1244, G032-1670, G032-1671, G033-4217, and G033-4212). The experimental methods for the assays were as described in the previous reports and the general methodology is summarized in the Supplementary Information Table S1. Recombinant human Chinese hamster ovary (CHO) cells and rat basophilic leukemic (RBL) cells were transfected with the GPCR genes of interest (hM1R, hM2R, hM3R, hM4R, and hM5R). The functional assay provided the readouts based on the measurements of calcium ion mobilization (for the Gαq/11-coupled receptors) and cAMP level (for the Gαi/o-coupled receptors).
# Stable CHO cells expressing the transfected cDNA of human M2 receptors were suspended in a medium containing HBSS buffer complemented with 20-mM HEPES buffer (pH 7.4) and 500-µM IBMX, whereas the stable human M4 receptor cloned CHO cells were distributed in HBSS buffer with 20-mM HEPES/NaOH (pH 7.4), 70-mM NaCl, 5.33-mM KCl, 1.25-mM CaCl2, 0.5-mM MgCl2, 0.41-mM MgSO4, 0.441-mM KH2PO4, 0.3-mM Na2HPO4, 0.1% glucose, and 500-µM IBMX. […] The cAMP level was calculated as the ratio of the signal measured at 665 nm to that measured at 620 nm. […]
# Assay Source Stimulus Incubation Measured Detection References […]
structure (smiles),measurement,setting,value
Cc1coc2c1C(=O)C(=O)c1c-2ccc2c1CCCC2(C)C [Tanshinone IIA],IC50,"[1]; read-out: IC50, hMAO-A",< 10 µM and 6.08 µM
same,SI (selectivity index),[1],0.35
same,IC50,[2],> 400 µM
same,"Inhibition Type, hMAO-B",[3],Non-competitive
same,"Inhibition Type, hMAO-B",[3]; listed as 2,noncompetitive inhibition
same,Ki,"[3]; read-out: Kic, hMAO-B",12.9 ± 1.14 µM
same,Ki,"[3]; read-out: Kiu, hMAO-B",13.7 ± 0.58 µM
same,IC50,[4],< 25 µM and 17.5 µM
same,"Inhibition Type, hMAO-A",[5],Mixed
same,"Inhibition Type, hMAO-A",[5]; listed as 2,mixed-mode
same,Ki,"[5]; read-out: Kic, hMAO-A",0.72 ± 0.13 µM
same,Ki,"[5]; read-out: Kiu, hMAO-A",2.74 ± 0.37 µM
C[C@H]1COC2=C1C(=O)C(=O)c1c2ccc2c1CCCC2(C)C [Cryptotanshinone],IC50,"[1]; IC50, hMAO-A",< 10 µM and 8.7 µM
same,SI (selectivity index),[1],0.38
same,IC50,[2],84 µM
same,Ki,"[3]; Kic, hMAO-B",9.33 ± 0.1 µM
same,"Inhibition Type, hMAO-B",[3],Competitive
same,"Inhibition Type, hMAO-B",[3]; listed as 3,competitive enzyme inhibition
same,IC50,[4],23.1 ± 2.1 µM
same,Ki,"[5]; Kic, hMAO-A",4.99 ± 0.34 µM
same,Ki,"[5]; Kiu, hMAO-A",38.1 ± 1.79 µM
same,"Inhibition Type, hMAO-A",[5],Mixed
same,"Inhibition Type, hMAO-A",[5]; listed as 3,mixed-mode
"CCOC(=O)c1c(C)[nH]c2ccc3c(c12)CN1CCc2cc(OC)ccc2C1O3 (stereo not shown) [PD 102807, reference compound]",IC50,[6],0.036 µM
"Cc1cccc2c3c(ccc12)C1=C(C(=O)C3=O)[C@@H](C)CO1 [Dtan I, dihydrotanshinone I, reference compound]",IC50,[2],23 µM
